Test results as given in US8796259B2, “N3-heteroaryl substituted triazoles and N5-heteroaryl substituted triazoles useful as axl inhibitors” (Rigel Pharmaceuticals, Inc., priority 2006, dated 2014).

Biological target: T1, Axl (Homo sapiens, UniProt P30530)
T1 construct: endogenous in cells; host or cells: HeLa cells
T1 sequence (P30530 26-894): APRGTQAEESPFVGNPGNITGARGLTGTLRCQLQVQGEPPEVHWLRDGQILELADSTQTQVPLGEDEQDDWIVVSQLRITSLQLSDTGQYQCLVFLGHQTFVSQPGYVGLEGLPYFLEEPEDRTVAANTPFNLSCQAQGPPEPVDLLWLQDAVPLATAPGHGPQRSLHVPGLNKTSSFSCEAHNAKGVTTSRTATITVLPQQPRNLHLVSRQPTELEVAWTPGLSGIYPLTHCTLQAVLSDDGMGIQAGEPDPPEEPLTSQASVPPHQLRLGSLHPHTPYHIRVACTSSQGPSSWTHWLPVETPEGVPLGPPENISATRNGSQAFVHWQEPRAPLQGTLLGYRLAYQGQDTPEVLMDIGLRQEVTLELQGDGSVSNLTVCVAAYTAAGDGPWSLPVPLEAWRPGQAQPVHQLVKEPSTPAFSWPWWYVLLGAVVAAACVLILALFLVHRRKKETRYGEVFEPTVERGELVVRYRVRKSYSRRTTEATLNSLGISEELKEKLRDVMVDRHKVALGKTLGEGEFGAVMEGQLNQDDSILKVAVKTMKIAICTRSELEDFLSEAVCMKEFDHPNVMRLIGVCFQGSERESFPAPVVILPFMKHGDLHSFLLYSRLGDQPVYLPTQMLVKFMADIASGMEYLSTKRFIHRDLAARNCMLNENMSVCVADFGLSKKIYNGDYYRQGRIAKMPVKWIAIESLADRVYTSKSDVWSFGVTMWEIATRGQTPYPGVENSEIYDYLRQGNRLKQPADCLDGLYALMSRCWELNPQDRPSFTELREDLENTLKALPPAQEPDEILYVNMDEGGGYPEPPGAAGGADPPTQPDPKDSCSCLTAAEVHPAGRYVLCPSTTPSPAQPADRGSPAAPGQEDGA
Test: Phospho-Akt in-cell Western assay (inhibition of Axl activity, Axl-antibody cross-linking stimulation)
Assay type: cell-based
Conditions: Hela cells, phospho-Akt readout; compounds of formula (Ia), Table 1
Experimental: The compounds of the invention were tested in the following assay for their ability to inhibit Axl activity.
Phospho-Akt in-Cell Western Assay
• Cell culture plate: 96 well assay plate (Corning 3610), white, clear bottom, tissue-culture treated. • Cells: Hela cells. • Starvation medium: For Axl stimulation: 0.5% FCS (fetal calf serum) in DMEM, plus Axl/Fc (extracellular domain of AXL fused to immunoglobulin Fc region) (R&D, 154-AL) 500 ng/mL. • For EGF (epidermal growth factor) stimulation: 0.5% FCS in DMEM (Dulbecco's modified Eagles medium). • Poly-L-Lysine 0.01% solution (the working solution): 10 μg/ml, dilute In PBS (phosphate buffered saline). • Axl antibody cross-linking: • 1st: Mouse anti-Axl (R&D, MAB154). • 2nd: Biotin-SP-conjugated AffiniPure goat anti-mouse IgG (H+L) (Jackson ImmunoResearch #115-065-003). • Fixing buffer: 4% formaldehyde in PBS. • Wash buffer: 0.1% TritonX-100 in PBS. • Quenching buffer: 3% H2O2, 0.1% Azide in wash buffer, Azide and hydrogen peroxide (H2O2) are added fresh. • Blocking buffer: 5% BSA in TBST (tris buffered saline plus 0.1% Tween 20). • Primary antibody: Rabbit anti-human Phospho-Akt antibody (Cell Signaling 9271): 1×250 diluted in blocking buffer. • Secondary antibody: HRP (horse radish peroxidase)-conjugated Goat anti-Rabbit secondary, stock solution: Jackson ImmunoResearch (Goat anti-Rabbit HRP, #111-035-144) 1:1 diluted in glycerol, store at −20° C. The working solution: 1×2000 dilution of stock in blocking buffer. • Chemiluminescent working solution (Pierce, 37030): SuperSignal ELISA (enzyme linked immunosorbant assay) Pico Chemiluminescent substrate. • Crystal Violet solution: Stock: 2.5% Crystal violet in methanol, filtered and kept at ambient temperature. The working solution: dilute the stock 1:20 with PBS immediately before use.
10% SDS: working solution: 5% SDS (sodium dodecylsulfate), diluted in PBS
A 96 well TC (tissue culture treated) plate was coated with 10 μg/mL poly-L-Lysine at 37° C. for 30 min, washed twice with PBS, and air-dried for 5 minutes before cells were added. Hela cells were seeded at 10,000 cells/well and the cells were starved in 100 μL starvation medium containing Axl/Fc for 24 hrs.
The cells were pre-treated with test compounds by adding 100 μL of 2× test compound to the starvation medium on the cells. The cells were incubated at 37° C. for 1 hr before stimulation.
The cells were stimulated by Axl-antibody cross-linking as follows: A 5×1st/2nd Axl antibody mixture was made (37.5 μg/mL 1st/100 μg/mL 2 nd) in starvation medium and nutated at 4° C. with thorough mixing for 1-2 hours for clustering. The resulting mix was warmed to 37° C. 50 μL of 5×Axl 1st/2nd of antibody cluster was added to the cells and the cells were incubated at 37° C. for 5 min.
After 5 minutes stimulation, the plate was flicked to remove medium and the plate was tapped onto paper towels. Formaldehyde (4.0% in PBS, 100 μL) was added to fix the cells and the cells were incubated at ambient temperature for 20 min without shaking.
The cells were washed with a plate washer buffer to remove the formaldehyde solution. The plate was flicked to removed excess wash buffer and tapped onto paper towels. Quenching buffer (100 μL) was added to each well and the cells were incubated at ambient temperature for 20 minutes without shaking.
The cells were washed with a plate washer buffer to remove the quenching buffer. Blocking buffer (100 μL) was added and the cells were incubated at ambient temperature for at least an hour with gentle shaking.
The cells were washed with a plate washer buffer and diluted primary antibody (50 μL) was added to each well (blocking buffer was added to the negative control wells instead). The plates were incubated overnight at 4° C. with gentle shaking.
The wash buffer was removed, diluted secondary antibody (100 μL) was added, and the cells were incubated at ambient temperature for 1 hour with gentle shaking. […]

Row | Compound | IC50 [nM]
1 | Cc1csc2c(-n3nc(Nc4ccc(N5CCC(N6CCN(C)CC6)CC5)nc4)nc3N)nc(Cl)nc12 [compound 22] | < 1000
2 | COc1cc2ncnc(-n3nc(Nc4ccc(N5CCC(N6CCCC6)CC5)nc4)nc3N)c2cc1OC [compound 23, 1-(6,7-dimethoxy-quinazoline-4-yl)-N^3-(6-(4-pyrrolidin-1-ylpiperidin-1-yl)pyridine-3-yl)-1H-1,2,4-triazole-3,5-diamine] | < 1000
3 | Cc1csc2c(-n3nc(Nc4ccc(N5CCN(C6CC7CCC6C7)CC5)nc4)nc3N)nc(Cl)nc12 (centres unmarked) [compound 24, 1-(2-chloro-7-methylthieno [3,2-d]pyrimidine-4-yl)-N^3-(6-(4-(bicyclo[2.2.1]heptan-2-yl)piperazin-1-yl)pyridin-3-yl)-1H-1,2,4-triazole-3,5-diamine] | < 1000
4 | Cc1csc2c(-n3nc(Nc4cnc5c(c4)CNCC5)nc3N)nc(Cl)nc12 [compound 25, 1-(2-chloro-7-methylthieno [3,2-d]pyrimidine-4-yl)-N^3-(5,6,7,8-tetrahydro-1,6-naphthyridin-3-yl)-1H-1,2,4-triazole-3,5-diamine] | < 1000
5 | COc1cc2ncnc(-n3nc(Nc4ccc(N5CCC(N6CCCCC6)CC5)nc4)nc3N)c2cc1OC [compound 27, 1-(6,7-dimethoxy-quinazoline-4-yl)-N^3-(6-(4-piperidin-1-ylpiperidin-1-yl)pyridine-3-yl)-1H-1,2,4-triazole-3,5-diamine] | < 1000
6 | Cc1csc2c(-n3nc(Nc4ccc(N5CCC(N6CCCCC6)CC5)nc4)nc3N)nc(Cl)nc12 [compound 28, 1-(2-chloro-7-methylthieno [3,2-d]pyrimidine-4-yl)-N^3-(6-(4-piperidin-1-ylpiperidin-1-yl)pyridine-3-yl)-1H-1,2,4-triazole-3,5-diamine] | < 1000
7 | Cc1csc2c(-n3nc(Nc4cnc5c(c4)CC(NC(=O)CN(C)C)CC5)nc3N)nc(Cl)nc12 (centres unmarked) [compound 29, 1-(2-chloro-7-methylthieno [3,2-d]pyrimidin-4-yl)-N^3-(6-(2-(dimethyl-amino)-1-oxyethyl-amino)-5,6,7,8-tetrahydro-quinolin-3-yl)-1H-1,2,4-triazole-3,5-diamine] | < 1000
8 | Cc1csc2c(-n3nc(Nc4cnc5c(c4)CC(N)CC5)nc3N)nc(Cl)nc12 (centres unmarked) [compound 30, 1-(2-chloro-7-methylthieno [3,2-d]pyrimidin-4-yl)-N^3-(6-amino-5,6,7,8-tetrahydro-quinolin-3-yl)-1H-1,2,4-triazole-3,5-diamine] | < 1000
9 | CN1CCN(c2ccc(Nc3nc(N)n(-c4nccc5ccccc45)n3)cn2)CC1 [compound 31, 1-(isoquinolin-1-yl)-N^3-(6-(4-methyl-piperazin-1-yl)pyridin-3-yl)-1H-1,2,4-triazole-3,5-diamine] | < 1000
10 | Cc1csc2c(-n3nc(Nc4cnc5[nH]ccc5c4)nc3N)nc(Cl)nc12 [compound 32, 1-(2-chloro-7-methylthieno [3,2-d]pyrimidin-4-yl)-N^3-(1H-pyrrolo[2,3-b]pyridin-5-yl)-1H-1,2,4-triazole-3,5-diamine] | < 1000
11 | Cc1csc2c(-n3nc(Nc4ccc(N5CCC(CN6CCCC6)CC5)nc4)nc3N)nc(Cl)nc12 [compound 33, 1-(2-chloro-7-methylthieno [3,2-d]pyrimidin-4-yl)-N^3-(6-(4-(pyrrolidin-1-ylmethyl)piperidin-1-yl)pyridin-3-yl)-1H-1,2,4-triazole-3,5-diamine] | < 1000
12 | COc1cc2ncnc(-n3nc(Nc4ccc(N5CCC(CN6CCCC6)CC5)nc4)nc3N)c2cc1OC [compound 34] | < 1000
13 | Cc1csc2c(-n3nc(Nc4ccc(N5CCC(N6CCCCCC6)CC5)nc4)nc3N)nc(Cl)nc12 [compound 35, 1-(2-chloro-7-methylthieno [3,2-d]pyrimidin-4-yl)-N^3-(6-(4-(azepan-1-yl)piperidin-1-yl)pyridin-3-yl)-1H-1,2,4-triazole-3,5-diamine] | < 1000
14 | CCN(CC)CC1CCCN1c1ccc(Nc2nc(N)n(-c3nc(Cl)nc4c(C)csc34)n2)cn1 (centres unmarked) [compound 38, 1-(2-chloro-7-methylthieno [3,2-d]pyrimidin-4-yl)-N^3-(6-(2-diethylamino-methyl-pyrrolidin-1-yl)pyridin-3-yl)-1H-1,2,4-triazole-3,5-diamine] | < 1000
15 | CCN(CC)CC1CCCN1c1ccc(Nc2nc(N)n(-c3ncnc4cc(OC)c(OC)cc34)n2)cn1 (centres unmarked) [compound 39, 1-(6,7-dimethoxy-quinazoline-4-yl)-N^3-(6-(2-diethyl-aminomethyl-pyrrolidin-1-yl)pyridin-3-yl)-1H-1,2,4-triazole-3,5-diamine] | < 1000
16 | COc1cc2ncnc(-n3nc(Nc4ccc5sc(C(=O)N6CCN(CCN(C)C)CC6)cc5c4)nc3N)c2cc1OC [compound 40, 1-(6,7-dimethoxy-quinazoline-4-yl)-N^3-(2-(1-(4-(2-(dimethyl-amino)ethyl)piperazin-1-yl)oxomethyl)benzo[b]thio-phen-5-yl)-1H-1,2,4-triazole-3,5-diamine] | 1000 to 10000
17 | Cc1cc(Nc2nc(N)n(-c3nc(Cl)nc4c(C)csc34)n2)cnc1N1CCC(N2CCCC2)CC1 [compound 41, 1-(2-chloro-7-methylthieno [3,2-d]pyrimidin-4-yl)-N^3-(6-(4-(pyrrolidin-1-yl)piperidin-1-yl)-5-methylpyridin-3-yl)-1H-1,2,4-triazole-3,5-diamine] | < 1000
18 | COc1cc2ncnc(-n3nc(Nc4cnc(N5CCC(N6CCCC6)CC5)c(C)c4)nc3N)c2cc1OC [compound 42, 1-(6,7-dimethoxy-quinazoline-4-yl)-N^3-(6-(4-(pyrrolidin-1-yl)piperidin-1-yl)-5-methylpyridin-3-yl)-1H-1,2,4-triazole-3,5-diamine] | < 1000
19 | Cc1cc(Nc2nc(N)n(-c3nc4ccccc4c4ccccc34)n2)cnc1N1CCC(N2CCCC2)CC1 [compound 43, 1-(phenanthridin-6-yl)-N^3-(6-(4-(pyrrolidin-1-yl)piperidin-1-yl)-5-methylpyridin-3-yl)-1H-1,2,4-triazole-3,5-diamine] | < 1000
20 | CCN(CC)C1CCN(c2ccc(Nc3nc(N)n(-c4nc(Cl)nc5c(C)csc45)n3)cn2)C1 (centres unmarked) [compound 44, 1-(2-chloro-7-methylthieno [3,2-d]pyrimidin-4-yl)-N^3-(6-(3-diethylamino-pyrrolidin-1-yl)pyridin-3-yl)-1H-1,2,4-triazole-3,5-diamine] | < 1000
